Laboratory results taken from US20190085289A1, “COMPOSITIONS AND METHODS FOR PATHOGEN INACTIVATION OF PLATELETS” (Cerus Corporation, priority 2017, published 2019).

Key:
[1] = Stability of S-59 in InterSol PAS protected from ambient light (HPLC); assay type: physicochemical; details: for S-59 UV peak area (HPLC) / S-59 concentration (HPLC): 230 μM in InterSol PAS, room temp, protected from light
Method: Additional studies evaluated stability of the S-59 (amotosalen) pathogen inactivation compound formulated in a platelet additive solution (PAS), but protected from ambient light exposure. A 230 μM solution of S-59 was prepared in the commercially available PAS solution InterSol® (Fenwal Inc.) and maintained at room temperature protected from ambient light conditions. HPLC analysis was performed on samples at times listed in Table 2 for both S-59 and photoproducts.

[2] = Stability and photoconversion of S-59 in PAS/plasma with platelets and bacteria (HPLC); assay type: physicochemical; details: for % S-59 conversion: after UVA
Method: Another study evaluated 24 hour stability and photoconversion of amotosalen (S-59) in PAS with plasma and platelets, in the presence of bacteria. Two ABO matched platelet units in 100% plasma were pooled, split into two units and InterSol® PAS added (e.g., 65/35). S-59 was added to the test unit at a concentration of 150 but not initially to the control unit. A log culture of K. pneumoniae (˜8 log cfu/mL) was added to the units at a target of ˜60 CFU/unit and the units were incubated in a platelets shaker at 22° C. for approximately 24 hours. At the end of incubation, S-59 was also added to the control unit at the same concentration and both control and test units were subjected to UVA light. Samples were taken pre- and post-UVA illumination for both units bacterial titer assay and HPLC. Post-illumination both units were subjected to a CAD processing step to remove residual amotosalen and photoproducts and stored on a platelet shaker for 7 days to confirm no growth of bacteria.

K. pneumoniae = assay: Photochemical inactivation of K. pneumoniae in platelets, bacterial titer assay; assay type: cell-based
Method: Another study evaluated 24 hour stability and photoconversion of amotosalen (S-59) in PAS with plasma and platelets, in the presence of bacteria. Two ABO matched platelet units in 100% plasma were pooled, split into two units and InterSol® PAS added (e.g., 65/35). S-59 was added to the test unit at a concentration of 150 but not initially to the control unit. A log culture of K. pneumoniae (˜8 log cfu/mL) was added to the units at a target of ˜60 CFU/unit and the units were incubated in a platelets shaker at 22° C. for approximately 24 hours. At the end of incubation, S-59 was also added to the control unit at the same concentration and both control and test units were subjected to UVA light. Samples were taken pre- and post-UVA illumination for both units bacterial titer assay and HPLC. Post-illumination both units were subjected to a CAD processing step to remove residual amotosalen and photoproducts and stored on a platelet shaker for 7 days to confirm no growth of bacteria. Photochemical inactivation of K. pneumoniae was also measured post-UVA exposure, with the titer (log cfu/mL) results shown in the following table.

[3] = Post-UVA residual S-59 concentration in FCV-spiked platelets (HPLC); assay type: physicochemical; details: for Post-UVA S-59 concentration: UVA ~3 J/cm^2
Method: An additional study was performed to evaluate the level of FCV inactivation with decreasing amounts of S-59 after extended incubation (e.g., pre-incubation) in PAS/Plasma. In this study, platelets in PAS/Plasma (65%/35%) were spiked with a stock of FCV at a 1:100 dilution. The FCV-spiked platelets were then split into 16 separate test units. Each unit was dosed with S-59 at approximately 150 μM, 90 μM, 30 μM or 15 μM concentration. Following the addition of S-59 in one of four dosing groups, the platelet units in each dosing group were incubated for 0, 4, 8 or 24 hr prior to illumination. A control sample was taken from each unit for virus titer determination and HPLC analysis of S-59 concentration pre-UVA treatment, followed by UVA light exposure at ˜3 J/cm^2 for photochemical treatment of the test samples. Following UVA treatment, the control and test samples were evaluated for inactivation of FCV using a standard virological plaque assay.
HPLC analysis also was performed to determine the amount (e.g., concentration) of S-59 remaining in samples after UVA illumination and photoconversion (Table 10).

[4] = system: Caliciviruses, such as feline calicivirus (FCV); details: photochemical inactivation, Irsch et al. 2011; cited from earlier work
[5] = Control unit (S-59 added after ~24 h incubation, then UVA), Replicate 1
[6] = Control unit (S-59 added after ~24 h incubation, then UVA), Replicate 2
[7] = Test unit (S-59 150 present during ~24 h incubation, then UVA), Replicate 1
[8] = Test unit (S-59 150 present during ~24 h incubation, then UVA), Replicate 2

Cc1oc2c(C)c3oc(=O)cc(C)c3cc2c1COCCN [S-59, 3-(2-aminoethoxymethyl)-2,5,9-trimethylfuro[3,2-g]chromen-7-one]
S-59 UV peak area (HPLC) ([1]; 5.5 hr): 3451.6489
S-59 concentration (HPLC) ([1]; 5.5 hr): 232.74 µM
S-59 UV peak area (HPLC) ([1]; 21.5 hr): 3439.4907
S-59 concentration (HPLC) ([1]; 21.5 hr): 231.93 µM
S-59 UV peak area (HPLC) ([1]; 28.5 hr): 3421.447
S-59 concentration (HPLC) ([1]; 28.5 hr): 230.72 µM
S-59 UV peak area (HPLC) ([1]; 44 hr): 3425.1028
S-59 concentration (HPLC) ([1]; 44 hr): 230.96 µM
S-59 UV peak area (HPLC) ([1]; 45.5 hr): 3399.0142
S-59 concentration (HPLC) ([1]; 45.5 hr): 229.22 µM
S-59 UV peak area (HPLC) ([1]; 53 hr): 3421.4934
S-59 concentration (HPLC) ([1]; 53 hr): 230.72 µM
S-59 UV peak area (HPLC) ([1]; 77 hr): 3446.6414
S-59 concentration (HPLC) ([1]; 77 hr): 232.41 µM
S-59 UV peak area (HPLC) ([1]; T 0): 3393.0647
S-59 concentration (HPLC) ([1]; T 0): 228.82 µM
loss of S-59 ([1]; InterSol PAS, protected from ambient light, at 77 hours): no loss
S-59 concentration stability ([2]; 24 hour incubation period, control and test units, with K. pneumoniae): stable
S-59 concentration ([2]; Control unit (S-59 added at end of ~24 h incubation), platelets + K. pneumoniae, T_24h, Avg.): 149 µM
S-59 concentration ([2]; Control unit (S-59 added at end of ~24 h incubation), T_24h, Replicate 1): 144 µM
S-59 concentration ([2]; Control unit (S-59 added at end of ~24 h incubation), T_24h, Replicate 2): 153 µM
S-59 concentration ([2]; Control unit (S-59 added at end of ~24 h incubation), T_Post-UVA, Avg.): 40 µM
S-59 concentration ([2]; Control unit (S-59 added at end of ~24 h incubation), T_Post-UVA, Replicate 1): 43 µM
S-59 concentration ([2]; Control unit (S-59 added at end of ~24 h incubation), T_Post-UVA, Replicate 2): 37 µM
% S-59 conversion ([2]; Control unit (S-59 added at end of ~24 h incubation), Avg.): 27%
% S-59 conversion ([2]; Control unit (S-59 added at end of ~24 h incubation), Replicate 1): 30%
% S-59 conversion ([2]; Control unit (S-59 added at end of ~24 h incubation), Replicate 2): 24%
S-59 concentration ([2]; Test unit (S-59 150 added before incubation), PAS/plasma platelets + K. pneumoniae, 22° C., T_0, Avg.): 152 µM
S-59 concentration ([2]; Test unit (S-59 added before incubation), platelets + K. pneumoniae, T_0, Replicate 1): 149 µM
S-59 concentration ([2]; Test unit (S-59 added before incubation), platelets + K. pneumoniae, T_0, Replicate 2): 155 µM
S-59 concentration ([2]; Test unit (S-59 added before incubation), platelets + K. pneumoniae, T_24h, Avg.): 153 µM
S-59 concentration ([2]; Test unit (S-59 added before incubation), T_24h, Replicate 1): 149 µM
S-59 concentration ([2]; Test unit (S-59 added before incubation), T_24h, Replicate 2): 157 µM
S-59 concentration ([2]; Test unit (S-59 added before incubation), T_Post-UVA, Avg.): 26 µM
S-59 concentration ([2]; Test unit (S-59 added before incubation), T_Post-UVA, Replicate 1): 27 µM
S-59 concentration ([2]; Test unit (S-59 added before incubation), T_Post-UVA, Replicate 2): 24 µM
% S-59 conversion ([2]; Test unit (S-59 added before incubation), Avg.): 17%
% S-59 conversion ([2]; Test unit (S-59 added before incubation), Replicate 1): 18%
% S-59 conversion ([2]; Test unit (S-59 added before incubation), Replicate 2): 15%
K. pneumoniae Log Reduction (K. pneumoniae; [5]): >7.3 Log
K. pneumoniae Titer Post-UVA (K. pneumoniae; [5]): <−0.7 log cfu/mL
K. pneumoniae Log Reduction (K. pneumoniae; [6]): >6.3 Log
K. pneumoniae Titer Post-UVA (K. pneumoniae; [6]): <−0.7 log cfu/mL
K. pneumoniae Log Reduction (K. pneumoniae; [7]): >7.3 Log
K. pneumoniae Titer Post-UVA (K. pneumoniae; [7]): <−0.7 log cfu/mL
K. pneumoniae Log Reduction (K. pneumoniae; [8]): >6.2 Log
K. pneumoniae Titer Post-UVA (K. pneumoniae; [8]): <−0.7 log cfu/mL
photochemical inactivation of K. pneumoniae (K. pneumoniae; post-UVA, both the control and test units): High level inactivation
Post-UVA S-59 concentration ([3]; Input S-59 15 μM, pre-incubation 0 hr): 3 µM
Post-UVA S-59 concentration ([3]; Input S-59 15 μM, pre-incubation 4 hr): 2 µM
Post-UVA S-59 concentration ([3]; Input S-59 15 μM, pre-incubation 8 hr): 2 µM
Post-UVA S-59 concentration ([3]; Input S-59 15 μM, pre-incubation 24 hr): 2 µM
Post-UVA S-59 concentration ([3]; Input S-59 30 μM, pre-incubation 0 hr): 5 µM
Post-UVA S-59 concentration ([3]; Input S-59 30 μM, pre-incubation 4 hr): 2 µM
Post-UVA S-59 concentration ([3]; Input S-59 30 μM, pre-incubation 8 hr): 2 µM
Post-UVA S-59 concentration ([3]; Input S-59 30 μM, pre-incubation 24 hr): 3 µM
Post-UVA S-59 concentration ([3]; Input S-59 90 μM, pre-incubation 0 hr): 14 µM
Post-UVA S-59 concentration ([3]; Input S-59 90 μM, pre-incubation 4 hr): 10 µM
Post-UVA S-59 concentration ([3]; Input S-59 90 μM, pre-incubation 8 hr): 11 µM
Post-UVA S-59 concentration ([3]; Input S-59 90 μM, pre-incubation 24 hr): 9 µM
Post-UVA S-59 concentration ([3]; Input S-59 150 μM, pre-incubation 0 hr): 29 µM
Post-UVA S-59 concentration ([3]; Input S-59 150 μM, pre-incubation 4 hr): 33 µM
Post-UVA S-59 concentration ([3]; Input S-59 150 μM, pre-incubation 8 hr): 22 µM
Post-UVA S-59 concentration ([3]; Input S-59 150 μM, pre-incubation 24 hr): 19 µM
residual S-59 concentration post-treatment ([3]; S-59 dosing groups with pre-incubation, levels reached): less than 5 μM
residual S-59 concentration ([3]; conditions giving high levels of inactivation (e.g., >4 logs)): 2 µM
log10 reduction in titer [4]: 1.7-2.4 log10
